Experimental findings from ChEMBL document CHEMBL5143608, “Peptide-based long-acting co-agonists of GLP-1 and cholecystokinin 1 receptors as novel anti-diabesity agents” (Eur J Med Chem, 2022) are described below.

Active and inactive are the calls of the source. The calls are words filed in the database; no cut-off is given here.

By EC50 is commonly meant the concentration giving half of the maximal effect. For orientation: AUC(0-inf) means total exposure, with the tail of the curve extrapolated. Broadly, the inhibition in vivo is the share of the control response that was lost under treatment.

Data set [1] concerns the target T1, Cholecystokinin receptor type A (Homo sapiens, UniProt P32238).
T1 sequence (P32238 whole entry): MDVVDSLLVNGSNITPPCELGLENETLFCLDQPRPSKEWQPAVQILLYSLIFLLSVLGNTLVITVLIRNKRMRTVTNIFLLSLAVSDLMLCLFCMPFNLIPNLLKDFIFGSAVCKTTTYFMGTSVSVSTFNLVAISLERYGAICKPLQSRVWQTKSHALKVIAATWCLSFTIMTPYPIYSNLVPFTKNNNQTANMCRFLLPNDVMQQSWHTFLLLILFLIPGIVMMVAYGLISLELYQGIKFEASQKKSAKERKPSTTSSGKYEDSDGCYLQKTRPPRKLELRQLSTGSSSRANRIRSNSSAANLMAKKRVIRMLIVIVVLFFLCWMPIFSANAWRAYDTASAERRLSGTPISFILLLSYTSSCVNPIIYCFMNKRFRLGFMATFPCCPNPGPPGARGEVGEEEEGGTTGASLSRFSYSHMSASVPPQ
The experiment in a line: Agonist activity at human CCK1R expressed in HEK293 cells assessed as ERK1/2 phosphorylation incubated for 5 mins by AlphaScreen assay. Type of data set: functional, cell-based. The following applies: hek293.

Data set [2] is described as follows: AUC (0 to infinity) in Sprague-Dawley rat at 25 nmol/kg, iv by LC-MS/MS analysis. Also noted: time infinity, dose 25 nmol/kg, route iv. To be noted: in vivo. The data set is classed as ADME, organism-based.
Data set [3] concerns Mus musculus. Kind of data set: Hypoglycemic activity in ICR mouse assessed as improvement in glucose tolerance at 25 nmol/kg, ip administered 30 min before oral glucose administration and measured upto 120 mins by OGTT. Type of data set: functional, organism-based.
For data set [4], the system named is Mus musculus. Kind of data set: Anti-diabesity activity against DIO C57BL/6 mouse assessed as increase in adiponectin level in plasma at 25 nmol/kg, sc administered every 2 days for 3 weeks by ELISA. Type of data set: functional, organism-based. The following applies: time 21.0 day.
Data set [5] concerns Mus musculus. Kind of data set: Anti-diabesity activity against DIO C57BL/6 mouse assessed as reduction in triglycerides level in serum at 25 nmol/kg, sc administered every 2 days for 3 weeks. The following applies: time 21.0 day. Type of data set: functional, organism-based.
Data set [6] deals with Mus musculus. The experiment in a line: Anti-diabesity activity against db/db mouse assessed as improvement in glucose tolerance at 25 nmol/kg, sc administered every 2 days for 12 weeks by OGTT. The data set is classed as functional, organism-based.
Data set [7] concerns Mus musculus. The experiment in a line: Anti-diabesity activity in DIO C57BL/6 mouse assessed as reduction in body weight at 100 nmol/kg, sc administered every 2 days for 10 days. The data set is classed as functional. To be noted: C57BL/6, 240 h, time 10 day.
In data set [8] the test system is Mus musculus. Kind of data set: Anorectic activity in ICR mouse assessed as decrease in food intake at 25 nmol/kg, ip and measured after 24 hrs. The data set is classed as functional, organism-based.
Data set [9] in a line: Hepatotoxicity in db/db mouse assessed as alanine aminotransferase level in plasma at 100 nmol/kg, sc administered once daily for 7 days. The data set is classed as toxicity, organism-based. To be noted: in vivo, 168 h, time 7 day.
Data set [10] can be described thus: Toxicity in Sprague-Dawley rat assessed as induction of Pica behaviour by measuring kaolin intake at 25 nmol/kg, ip measured after 24 hrs. The data set is classed as organism-based. To be noted: in vivo.
The nature of data set [11]: Hepatotoxicity in DIO C57BL/6 mouse assessed as alanine aminotransferase level in serum at 25 nmol/kg, sc administered every 2 days for 3 weeks. The data set is classed as toxicity, organism-based. The following applies: in vivo, 504 h, time 21 day.
The subject of data set [12] is Mus musculus. The experiment in a line: Anti-diabesity activity against db/db mouse assessed as improvement in glucose tolerance at 25 nmol/kg, sc administered every 2 days for 3 weeks by OGTT. The data set is classed as functional, organism-based. To be noted: time 21.0 day.
The subject of data set [13] is Mus musculus. The experiment in a line: Anti-diabesity activity against db/db mouse assessed as increase in insulin sensitivity by measuring reduction in plasma insulin level at 25 nmol/kg, sc administered every 2 days for 12 weeks by ELISA. Type of data set: functional, organism-based.
Data set [14] deals with T2, Glucagon-like peptide 1 receptor (Homo sapiens, UniProt P43220). Kind of data set: Agonist activity at human GLP-1R expressed in HEK293 cells assessed as cAMP release incubated for 20 min by HTRF analysis. Type of data set: functional, cell-based. To be noted: hek293. For orientation: Time-resolved FRET reads energy transfer from a long-lived donor to a nearby acceptor.

Data set [15] addresses T2, Glucagon-like peptide 1 receptor. Kind of data set: Agonist activity at human GLP-1R expressed in CHO cells assessed as cAMP release incubated for 20 min by HTRF analysis. Type of data set: functional, cell-based.

T2 sequence (P43220 whole entry): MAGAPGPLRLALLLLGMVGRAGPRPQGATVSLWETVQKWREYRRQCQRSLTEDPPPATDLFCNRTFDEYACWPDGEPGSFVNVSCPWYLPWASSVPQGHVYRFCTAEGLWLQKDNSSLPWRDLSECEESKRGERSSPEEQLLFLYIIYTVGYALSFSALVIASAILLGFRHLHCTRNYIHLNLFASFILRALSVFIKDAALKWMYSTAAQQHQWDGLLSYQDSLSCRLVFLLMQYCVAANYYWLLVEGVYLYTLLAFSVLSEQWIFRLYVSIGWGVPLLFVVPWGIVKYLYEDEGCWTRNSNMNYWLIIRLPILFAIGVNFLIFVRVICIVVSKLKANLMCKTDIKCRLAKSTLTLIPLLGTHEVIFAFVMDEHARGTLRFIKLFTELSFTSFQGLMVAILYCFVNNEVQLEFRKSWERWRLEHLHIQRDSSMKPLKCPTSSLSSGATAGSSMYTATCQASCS

As for `CCCC[C@H](NC(=O)[C@H](Cc1ccc(CS(=O)(=O)O)cc1)NC(=O)[C@H](CC(=O)O)NC(=O)COCCOCCNC(=O)COCCOCCNC(=O)[C@H](CCCNC(=N)N)NC(=O)CNC(=O)[C@H](CCCCN)NC(=O)[C@@H](NC(=O)[C@H](CC(C)C)NC(=O)[C@H](Cc1c[nH]c2ccccc12)NC(=O)[C@H](C)NC(=O)[C@@H](NC(=O)[C@H](Cc1ccccc1)NC(=O)[C@H](CCC(=O)O)NC(=O)[C@H](CCCCNC(=O)COCCOCCNC(=O)COCCOCCNC(=O)CC[C@H](NC(=O)CCCCCCCCCCCCCCCCC(=O)O)C(=O)O)NC(=O)[C@H](C)NC(=O)[C@H](C)NC(=O)[C@H](CCC(N)=O)NC(=O)CNC(=O)[C@H](CCC(=O)O)NC(=O)[C@H](CC(C)C)NC(=O)[C@H](Cc1ccc(O)cc1)NC(=O)[C@H](CO)NC(=O)[C@H](CO)NC(=O)[C@@H](NC(=O)[C@H](CC(=O)O)NC(=O)[C@H](CO)NC(=O)[C@@H](NC(=O)[C@H](Cc1ccccc1)NC(=O)[C@@H](NC(=O)CNC(=O)[C@H](CCC(=O)O)NC(=O)[C@H](C)NC(=O)[C@@H](N)Cc1cnc[nH]1)[C@@H](C)O)[C@@H](C)O)C(C)C)[C@@H](C)CC)C(C)C)C(=O)NCC(=O)N[C@@H](Cc1c[nH]c2ccccc12)C(=O)N[C@@H](CCCC)C(=O)N(C)[C@H](CC(=O)O)C(=O)N(C)[C@@H](Cc1ccccc1)C(N)=O`, the EC50 in data set [1] was 1.25 nM. Also, the area under the curve AUC(0-inf) in data set [2] worked out at 6050 ng·h/mL. In addition, the outcome in the data set with Mus musculus [3], in the data set with Mus musculus [4], with Mus musculus [5], in the data set with Mus musculus [6], in the data set with Mus musculus [8] and in the data set with Mus musculus [12] was Active. Further, in the data set with Mus musculus [13], the outcome was Active. Moreover, the inhibition in vivo at 0.1 µmol/kg with Mus musculus [7] is 27.1%. Further, the Activity result in data set [9], in data set [10] and in data set [11] was “Non-Toxic” throughout.
With `CCCC[C@H](NC(=O)[C@H](Cc1ccc(CS(=O)(=O)O)cc1)NC(=O)[C@H](CC(=O)O)NC(=O)COCCOCCNC(=O)COCCOCCNC(=O)[C@H](CCCCN)NC(=O)CNC(=O)[C@H](CCCCN)NC(=O)[C@@H](NC(=O)[C@H](CC(C)C)NC(=O)[C@H](Cc1c[nH]c2ccccc12)NC(=O)[C@H](CCC(=O)O)NC(=O)[C@@H](NC(=O)[C@H](Cc1ccccc1)NC(=O)[C@H](CCC(=O)O)NC(=O)[C@H](CCCCNC(=O)COCCOCCNC(=O)COCCOCCNC(=O)CC[C@H](NC(=O)CCCCCCCCCCCCCCCCC(=O)O)C(=O)O)NC(=O)[C@H](C)NC(=O)[C@H](C)NC(=O)[C@H](CCC(=O)O)NC(=O)[C@H](CCC(=O)O)NC(=O)[C@H](CCC(=O)O)NC(=O)[C@H](CC(C)C)NC(=O)[C@@H](NC(=O)[C@H](CCC(=O)O)NC(=O)[C@@H](NC(=O)[C@@H](NC(=O)[C@H](CC(=O)O)NC(=O)[C@H](CC(N)=O)NC(=O)[C@@H](NC(=O)[C@H](Cc1ccc(O)cc1)NC(=O)[C@@H](NC(=O)CNC(=O)[C@H](CCC(=O)O)NC(=O)C(C)(C)NC(=O)[C@@H](N)Cc1cnc[nH]1)[C@@H](C)O)[C@@H](C)O)C(C)C)[C@@H](C)O)[C@@H](C)O)[C@@H](C)CC)[C@@H](C)CC)C(=O)NCC(=O)N[C@@H](Cc1c[nH]c2ccccc12)C(=O)N[C@@H](CCCC)C(=O)N(C)[C@H](CC(=O)O)C(=O)N(C)[C@@H](Cc1ccccc1)C(N)=O`, the EC50 was 0.074 nM in [14], 0.83 nM in data set [1] and 0.057 nM in data set [15]. In [2], this compound displayed an AUC(0-inf) of 17600 ng·h/mL. Further, the outcome in the data set on Mus musculus [4], in the data set with Mus musculus [5], with Mus musculus [6], in the data set on Mus musculus [8], in the data set with Mus musculus [12] and in the data set on Mus musculus [13] was Active. Besides, the inhibition in vivo at 0.1 µmol/kg in the data set with Mus musculus [7] stood at 30.6%. In addition, the Activity result in [9], in [10] and in data set [11] was “Non-Toxic” in each case.
